Laboratory results as given in patent US20250306007A1, “DETECTING APOPTOTIC BODIES BY IMPEDANCE CYTOMETRY AS AN INDICATOR OF DRUG SENSITIVITY” (University of Virginia Patent Foundation, priority 2022, published 2025).

Legend:
[1] = system: highly tumorigenic cells derived from the xenograft 122 (patient-derived tumor cells); assay: cell proliferation assays comparing phenotypes over drug concentration ranges; type: cell-based
Source text: FIG. 1B is a schematic example of a progression of drug resistance onset of in vitro cancer cells. In an example, a tumor tissue sample 120 can be collected from a cancer patient 118 such as via surgical resection or biopsy. Cells from the tumor tissue sample 120 can be propagated, e.g., within immunocompromised mice as a xenograft 122. […] Once propagated, the line established from the xenograft 122 can be maintained in culture for treatment from a chemotherapeutic drug 124, such as gemcitabine, a fluorouracil, doxorubicin, or any other drug used in the treatment of cancer. In an example involving gemcitabine treatment on highly tumorigenic cells derived from the xenograft 122, the range of gemcitabine levels that lead to drug sensitivity can be assessed by cell proliferation assays 126. Depending on the drug treatment, the in vitro cancer cells can be drug resistant, e.g., with varying degrees of resistance to one or more drugs. The CAFs can also be further propagated in vitro and subjected to additional drug treatment(s) to further examine the drug resistance of the cancer cells. […] These structures can be associated with apoptosis-induced cell disassembly, which generates ABs of particular composition and structure. These phenotypes can be used as a model to help identify and stratify ABs in subsequent patient-derived tumor cells using impedance cytometry techniques based on comparison of their single-particle sensitivity levels.

[2] = system: cancer cells lifted from the culture (gemcitabine-treated pancreatic tumor cultures); assay: impedance cytometry of cancer cell samples exposed to chemotherapeutic drug; type: cell-based; settings: about 48 hours, FIG. 2A/2B
Source text: Individual cells from the biological sample or culture 102 can flow (e.g., propelled via a focusing flow channel of the impedance cytometry device 104) through the main channel 114 of the test cell 106 at a specified throughput (e.g., within a range of about 200 cells/s to about 500 cells/s) past electrodes or microelectrodes under an AC electric field applied over a specified range of frequencies (e.g., within a range between about 0.5 megahertz (MHz) to 50 MHz). In an example, an impedance of respective detected specimen can be measured by the measurement circuitry 108 concurrently or simultaneously using a plurality of discrete frequencies, e.g., a reference frequency within a range of about 15 MHz and about 20 MHz, and one or more analysis frequencies within a specified analysis frequency range. […] The electrophysiology of the cancer cells lifted from the culture after various gemcitabine treatment conditions can be measured by impedance cytometry to determine impedance magnitude (|Z|) and impedance phase (ϕZ) at a low (0.5 MHz) and a high frequency (18 MHz) for analyzing individual cellular 204 and/or sub-cellular 202 events. […] At a specified threshold frequency (e.g., at about 18 MHz), the impedance signal can be effectively determined by the dielectric properties of the cell interior, rather than properties the cell exterior. […]

## Nc1ccn([C@@H]2O[C@H](CO)[C@@H](O)C2(F)F)c(=O)n1 [chemotherapeutic drug 124, gemcitabine]
[1]; at about 0.01 μg mL^−1
  phenotype (apoptosis-induced cell disassembly structures): generation of blebs of varying size on the plasma membrane
[1]; at about 0.1 μg mL^−1
  phenotype (apoptosis-induced cell disassembly structures): presence of large protrusions
[1]; at about 1 μg mL^−1
  phenotype (apoptosis-induced cell disassembly structures): emergence of beaded structures
[2]; increasing drug concentration 0.01, 0.1, 1 μg mL^−1 vs untreated
  sub-cellular events (release of ABs): rise in sub-cellular events 202
[2]; increasing drug concentration
  impedance phase at 18 MHz (ϕZ18 MHz), cellular and sub-cellular populations: downward shift in ϕZ18 MHz
